These results are taken from ChEMBL document CHEMBL5247669, “Synthesis, modeling, and biological evaluation of anti-tubulin indole-substituted furanones” (Bioorg Med Chem Lett, 2023).

The source made the active and inactive calls. No cut-off for these calls is given here.

In test [1] the test system is U-937. The test is described as follows: Anticancer activity against human U-937 cells assessed as reduction in cell viability by MTT assay. The format is functional, cell-based. A general note: Tetrazolium assays rely on reduction of a dye to a coloured formazan, in cell work by metabolically active cells.
In test [2] the test system is SK-OV-3. The test is described as follows: Growth inhibition of human SK-OV-3 cells by MTT assay. Type of test: functional.
Test [3] relates to SW-620. The test is described as follows: Growth inhibition of human SW-620 cells by MTT assay. The format is functional.
In test [4] the test system is U-251. The test is described as follows: Growth inhibition of human U-251 cells by MTT assay. The format is functional.
The subject of test [5] is MDA-MB-435. The test is described as follows: Growth inhibition of human MDA-MB-435 cells by MTT assay. Type of test: functional.
The test system of test [6] is CCRF-CEM. The experiment in a line: Growth inhibition of human CCRF-CEM cells by MTT assay. Type of test: functional.
The subject of test [7] is DU-145. The test is described as follows: Growth inhibition of human DU-145 cells by MTT assay. Type of test: functional.
For test [8], the system named is SNB-75. The experiment in a line: Growth inhibition of human SNB-75 cells by MTT assay. Type of test: functional.
For test [9], the system named is MOLT-4. The experiment in a line: Growth inhibition of human MOLT-4 cells by MTT assay. Type of test: functional.
In test [10] the test system is OVCAR-5. The experiment in a line: Growth inhibition of human OVCAR-5 cells by MTT assay. Type of test: functional.
Test [11] concerns OVCAR-3. The test is described as follows: Growth inhibition of human OVCAR-3 cells by MTT assay. Type of test: functional.
In test [12] the test system is UACC-62. The test is described as follows: Growth inhibition of human UACC-62 cells by MTT assay. Type of test: functional.
In test [13] the test system is RPMI-8226. The test is described as follows: Growth inhibition of human RPMI-8226 cells by MTT assay. The format is functional.
Test [14] deals with HOP-92. The experiment in a line: Growth inhibition of human HOP-92 cells by MTT assay. Type of test: functional.
For test [15], the system named is Hs-578T. The test is described as follows: Growth inhibition of human Hs-578T cells by MTT assay. Type of test: functional.
Test [16] has as its system SK-MEL-28. The experiment in a line: Growth inhibition of human SK-MEL-28 cells by MTT assay. The format is functional.
Test [17] relates to HT-29. The experiment in a line: Growth inhibition of human HT-29 cells by MTT assay. Type of test: functional.
Test [18] relates to BT-549. The experiment in a line: Growth inhibition of human BT-549 cells by MTT assay. Type of test: functional.
The subject of test [19] is PC-3. The test is described as follows: Growth inhibition of human PC-3 cells by MTT assay. The format is functional.
For test [20], the system named is SNB-19. The experiment in a line: Growth inhibition of human SNB-19 cells by MTT assay. Type of test: functional.
The test system of test [21] is MDA-MB-231. The experiment in a line: Growth inhibition of human MDA-MB-231 cells by MTT assay. The format is functional.
Test [22] relates to A549. The test is described as follows: Growth inhibition of human A549 cells by MTT assay. Type of test: functional.
For test [23], the system named is NCI-H522. The test is described as follows: Growth inhibition of human NCI-H522 cells by MTT assay. The format is functional.
In test [24] the test system is RXF 393. The experiment in a line: Growth inhibition of human RXF 393 cells by MTT assay. Type of test: functional.
Test [25] has as its system K562. The test is described as follows: Growth inhibition of human K562 cells by MTT assay. The format is functional.
Test [26] deals with SR. The test is described as follows: Growth inhibition of human SR cells by MTT assay. Type of test: functional.
Test [27] deals with Tubulin (Homo sapiens) (UniProt P68371+Q9H4B7+P0DPH7+P68366+Q13509+Q71U36+P04350+Q3ZCM7+P07437+P68363+Q9BQE3+Q6PEY2+Q13885+Q9BVA1+Q9BUF5). The experiment in a line: Inhibition of tubulin polymerization (unknown origin) at 10 uM. Type of test: protein-complex assay.
Test [28] deals with TK-10. The test is described as follows: Growth inhibition of human TK-10 cells by MTT assay. The format is functional.
Test [29] deals with T47D. The test is described as follows: Growth inhibition of human T47D cells by MTT assay. Type of test: functional.
The subject of test [30] is MCF7. The test is described as follows: Growth inhibition of human MCF7 cells by MTT assay. Type of test: functional.
For test [31], the system named is COLO 205. The test is described as follows: Growth inhibition of human COLO 205 cells by MTT assay. Type of test: functional.
Test [32] relates to SN12C. The experiment in a line: Growth inhibition of human SN12C cells by MTT assay. The format is functional.
Test [33] deals with NCI-H23. The experiment in a line: Growth inhibition of human NCI-H23 cells by MTT assay. Type of test: functional.
Test [34] concerns NCI-H460. The experiment in a line: Growth inhibition of human NCI-H460 cells by MTT assay. The format is functional.
In test [35] the test system is SK-MEL-5. The test is described as follows: Growth inhibition of human SK-MEL-5 cells by MTT assay. Type of test: functional.
Test [36] concerns Malme-3M. The test is described as follows: Growth inhibition of human Malme-3M cells by MTT assay. Type of test: functional.
In test [37] the test system is ACHN. The test is described as follows: Growth inhibition of human ACHN cells by MTT assay. Type of test: functional.
For test [38], the system named is SF-295. The test is described as follows: Growth inhibition of human SF-295 cells by MTT assay. Type of test: functional.
Test [39] deals with SK-MEL-2. The test is described as follows: Growth inhibition of human SK-MEL-2 cells by MTT assay. Type of test: functional.
The test system of test [40] is A498. The experiment in a line: Growth inhibition of human A498 cells by MTT assay. Type of test: functional.
The subject of test [41] is MDA-MB-468. The experiment in a line: Growth inhibition of human MDA-MB-468 cells by MTT assay. The format is functional.
Test [42] relates to HOP-62. The test is described as follows: Growth inhibition of human HOP-62 cells by MTT assay. Type of test: functional.
For test [43], the system named is LOX IMVI. The experiment in a line: Growth inhibition of human LOX IMVI cells by MTT assay. The format is functional.
The subject of test [44] is KM12. The test is described as follows: Growth inhibition of human KM12 cells by MTT assay. Type of test: functional.
Test [45] has as its system 786-0. The test is described as follows: Growth inhibition of human 786-0 cells by MTT assay. Type of test: functional.
For test [46], the system named is UACC-257. The test is described as follows: Growth inhibition of human UACC-257 cells by MTT assay. The format is functional.
In test [47] the test system is SF-268. The test is described as follows: Growth inhibition of human SF-268 cells by MTT assay. The format is functional.
Test [48] has as its system NCI-H322M. The test is described as follows: Growth inhibition of human NCI-H322M cells by MTT assay. The format is functional.
In test [49] the test system is HL-60. The experiment in a line: Growth inhibition of human HL-60 cells by MTT assay. Type of test: functional.
Test [50] relates to IGROV-1. The test is described as follows: Growth inhibition of human IGROV-1 cells by MTT assay. Type of test: functional, cell-based.
Test [51] concerns UO-31. The experiment in a line: Growth inhibition of human UO-31 cells by MTT assay. The format is functional.
For test [52], the system named is HCC 2998. The experiment in a line: Growth inhibition of human HCC 2998 cells by MTT assay. The format is functional.
Test [53] concerns OVCAR-4. The experiment in a line: Growth inhibition of human OVCAR-4 cells by MTT assay. Type of test: functional.
Test [54] deals with NCI/ADR-RES. The test is described as follows: Growth inhibition of human NCI/ADR-RES cells by MTT assay. The format is functional.
The subject of test [55] is NCI-H226. The test is described as follows: Growth inhibition of human NCI-H226 cells by MTT assay. Type of test: functional.
Test [56] has as its system OVCAR-8. The test is described as follows: Growth inhibition of human OVCAR-8 cells by MTT assay. Type of test: functional.
The subject of test [57] is HCT-116. The experiment in a line: Growth inhibition of human HCT-116 cells by MTT assay. Type of test: functional.
The subject of test [58] is CAKI-1. The experiment in a line: Growth inhibition of human CAKI-1 cells by MTT assay. Type of test: functional.
The subject of test [59] is SF-539. The experiment in a line: Growth inhibition of human SF-539 cells by MTT assay. Type of test: functional.
Test [60] has as its system HCT-15. The test is described as follows: Growth inhibition of human HCT-15 cells by MTT assay. The format is functional.
For test [61], the system named is M14. The experiment in a line: Growth inhibition of human M14 cells by MTT assay. Type of test: functional.
The subject of test [62] is EKVX. The test is described as follows: Growth inhibition of human EKVX cells by MTT assay. Type of test: functional.

`COc1ccc(OC)c(C2=C(c3cn(C)c4ccccc34)COC2=O)c1`: the EC50 – broadly, the concentration at which the effect is half-maximal – in test [1] amounted to 3200 nM.
In the case of `COc1ccc(C2=C(c3cn(C)c4ccccc34)COC2=O)cc1OC`, in test [1], the EC50 is > 10000 nM.
For the compound `COc1cc(C2=C(c3cn(C)c4ccccc34)COC2=O)cc(OC)c1OC`, the GI50 – broadly, the concentration at which growth is held to half of that of the control – worked out at 269 nM in [2]; 45 nM in test [3]; 72 nM in [4]; 25 nM in test [5]; 59 nM in test [6]; 209 nM in test [7]. Also, the GI50 in [8] was determined as 44 nM; in [9], 55 nM; in [10], 479 nM; in test [11] it was 36 nM; in test [12], 54 nM; in test [13], 110 nM. In addition, the GI50 in [14] was 251 nM; in test [15], 158 nM; in test [16] it was 427 nM; in test [17], 38 nM; in test [18], 62 nM; in [19] it was 102 nM. The GI50 in test [20] turned out to be 158 nM; in [21] it was 339 nM; in [22], 100 nM; in test [23], 49 nM; in [24] it was 132 nM; in [25], 37 nM. Moreover, the GI50 came out at 22 nM in [26]; 933 nM in test [28]; 60 nM in [29]; 28 nM in test [30]; 65 nM in [31]; 282 nM in test [32]. In addition, the GI50 stood at 234 nM in test [33]; 54 nM in [34]; 78 nM in test [35]; 195 nM in test [36]; 537 nM in [37]; 40 nM in test [38]. Besides, the GI50 in test [39] was 229 nM; in [40], 17 nM; in test [41], 32 nM; in test [42], 123 nM; in test [43], 66 nM; in [44], 65 nM. Besides, the GI50 in test [45] was determined as 316 nM; in test [46], 1620 nM; in test [47], 813 nM; in test [48] it was 407 nM; in test [49], 43 nM; in test [51] it was 186 nM. Moreover, the GI50 in test [52] was found to be 219 nM; in [53], 1260 nM; in [54] it was 47 nM; in test [55] it was 692 nM; in [56], 339 nM; in [57] it was 40 nM. The GI50 in [58] turned out to be 52 nM; in test [59] it was 105 nM; in test [60] it was 43 nM; in test [61] it was 37 nM; in test [62], 151 nM. Also, in test [27], the inhibition entry was “Active”. Besides, in test [50], the IC50 (in general, the midpoint of a concentration-inhibition curve) was found to be 76 nM. Further, in [1], the EC50 turned out to be 600 nM.
`Cc1cccc(C2=C(c3cn(C)c4ccccc34)COC2=O)c1`: in [1], the concentration for a half-maximal effect (EC50) is > 10000 nM.
For `Cn1cc(C2=C(c3ccccc3)C(=O)OC2)c2ccccc21`, in test [1], the EC50 was > 10000 nM.
`COc1ccccc1C1=C(c2cn(C)c3ccccc23)COC1=O`: in test [1], the EC50 was > 10000 nM.
Turning to `Cc1ccc(C2=C(c3cn(C)c4ccccc34)COC2=O)cc1`, the EC50 in test [1] is > 10000 nM.
Consider `COc1ccc(C2=C(c3cn(C)c4ccccc34)COC2=O)cc1`, for which the EC50 in test [1] was > 10000 nM.
As to `COc1cccc(C2=C(c3cn(C)c4ccccc34)COC2=O)c1`, the EC50 in [1] is > 10000 nM.
